# Source: PubChem BioAssay AID2060625 (Molecular Pharmacology Branch, DTP, NCI, 2025)
# Where “and” joins values, the source holds several entries; their conditions need not be identical. Identical values can stand only once.
# System: 186277-243-T-J2-PDC spheroids with HUVEC/MSC, viability
# Assay: Anticancer human tumor 186277-243-T-J2-PDC patient-derived colon adenocarcinoma cell line growth inhibition [CLK]
# Settings: for viability, T/C: stronger effect = lower value
# Method in brief: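 Patient-derived tumor cells grown as complex spheroids with HUVEC endothelial cells and mesenchymal stem cells, treated with drug combinations. Concentrations descend in half-log steps from near clinical Cmax, or from 10 microM if Cmax unknown.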
# [1] = curve of first compound, second compound 0.0316 µM
# [2] = curve of first compound, second compound 0.1 µM
# [3] = curve of first compound, second compound 0.316 µM
# [4] = curve of first compound, second compound 1 µM
# [5] = curve of first compound, second compound 3.16 µM
# [6] = curve of first compound, second compound 10 µM
# [7] = second compound 0.0316 µM, first compound 0.0316 µM
# [8] = second compound 0.0316 µM, first compound 0.1 µM
# [9] = second compound 0.0316 µM, first compound 0.316 µM
# [10] = second compound 0.0316 µM, first compound 1 µM
# [11] = second compound 0.0316 µM, first compound 3.16 µM
# [12] = second compound 0.0316 µM, first compound 10 µM
# [13] = second compound 0.1 µM, first compound 0.0316 µM
# [14] = second compound 0.1 µM, first compound 0.1 µM
# [15] = second compound 0.1 µM, first compound 0.316 µM
# [16] = second compound 0.1 µM, first compound 1 µM
# [17] = second compound 0.1 µM, first compound 3.16 µM
# [18] = second compound 0.1 µM, first compound 10 µM
# [19] = second compound 0.316 µM, first compound 0.0316 µM
# [20] = second compound 0.316 µM, first compound 0.1 µM
# [21] = second compound 0.316 µM, first compound 0.316 µM
# [22] = second compound 0.316 µM, first compound 1 µM
# [23] = second compound 0.316 µM, first compound 3.16 µM
# [24] = second compound 0.316 µM, first compound 10 µM
# [25] = second compound 1 µM, first compound 0.0316 µM
# [26] = second compound 1 µM, first compound 0.1 µM
# [27] = second compound 1 µM, first compound 0.316 µM
# [28] = second compound 1 µM, first compound 1 µM
# [29] = second compound 1 µM, first compound 3.16 µM
# [30] = second compound 1 µM, first compound 10 µM
# [31] = second compound 3.16 µM, first compound 0.0316 µM
# [32] = second compound 3.16 µM, first compound 0.1 µM
# [33] = second compound 3.16 µM, first compound 0.316 µM
# [34] = second compound 3.16 µM, first compound 1 µM
# [35] = second compound 3.16 µM, first compound 3.16 µM
# [36] = second compound 3.16 µM, first compound 10 µM
# [37] = second compound 10 µM, first compound 0.0316 µM
# [38] = second compound 10 µM, first compound 0.1 µM
# [39] = second compound 10 µM, first compound 0.316 µM
# [40] = second compound 10 µM, first compound 1 µM
# [41] = second compound 10 µM, first compound 3.16 µM
# [42] = second compound 10 µM, first compound 10 µM
# [43] = second compound 0.0316 µM, first compound 0.00316 µM
# [44] = second compound 0.0316 µM, first compound 0.01 µM
# [45] = second compound 0.1 µM, first compound 0.00316 µM
# [46] = second compound 0.1 µM, first compound 0.01 µM
# [47] = second compound 0.316 µM, first compound 0.00316 µM
# [48] = second compound 0.316 µM, first compound 0.01 µM
# [49] = second compound 1 µM, first compound 0.00316 µM
# [50] = second compound 1 µM, first compound 0.01 µM
# [51] = second compound 3.16 µM, first compound 0.00316 µM
# [52] = second compound 3.16 µM, first compound 0.01 µM
# [53] = second compound 10 µM, first compound 0.00316 µM
# [54] = second compound 10 µM, first compound 0.01 µM
# 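Also: compound exposure lasted seven days before readout.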
# 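For viability, T/C in this document: 100% = DMSO vehicle control wells.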
smiles,measurement,setting,value
CC(Nc1ccc2c(c1)OCCn1cc(N3C(=O)OCC3C(F)F)nc1-2)C(N)=O (centres undefined) + CNC(=O)c1ccc(Nc2nc(OC3CCCC3)c3c(-c4ccc5nc(C)oc5c4)c[nH]c3n2)c(OC)c1,IC50,[1],1.79 µM
same,IC50,[2],0.0417 µM
same,IC50,[3],< 0.0316 µM
same,IC50,[4],< 0.0316 µM
same,IC50,[5],< 0.0316 µM
same,IC50,[6],< 0.0316 µM
same,"viability, T/C",[7],86.1%
same,"viability, T/C",[8],93.9%
same,"viability, T/C",[9],63.2%
same,"viability, T/C",[10],57.6%
same,"viability, T/C",[11],46.6%
same,"viability, T/C",[12],30.5%
same,"viability, T/C",[13],53.9%
same,"viability, T/C",[14],39.9%
same,"viability, T/C",[15],35.2%
same,"viability, T/C",[16],29.4%
same,"viability, T/C",[17],20.1%
same,"viability, T/C",[18],14.7%
same,"viability, T/C",[19],30.4%
same,"viability, T/C",[20],24.3%
same,"viability, T/C",[21],16.9%
same,"viability, T/C",[22],11.4%
same,"viability, T/C",[23],10.2%
same,"viability, T/C",[24],7.7%
same,"viability, T/C",[25],20.6%
same,"viability, T/C",[26],16.4%
same,"viability, T/C",[27],12.4%
same,"viability, T/C",[28],11.2%
same,"viability, T/C",[29],7.78%
same,"viability, T/C",[30],6.87%
same,"viability, T/C",[31],20.8%
same,"viability, T/C",[32],15%
same,"viability, T/C",[33],11.1%
same,"viability, T/C",[34],10.6%
same,"viability, T/C",[35],7.84%
same,"viability, T/C",[36],5.24%
same,"viability, T/C",[37],24.5%
same,"viability, T/C",[38],19.6%
same,"viability, T/C",[39],10.9%
same,"viability, T/C",[40],9.69%
same,"viability, T/C",[41],6.97%
same,"viability, T/C",[42],4.12%
CCc1c2c(nc3ccc(O)cc13)-c1cc3c(c(=O)n1C2)COC(=O)[C@]3(O)CC + CNC(=O)c1ccc(Nc2nc(OC3CCCC3)c3c(-c4ccc5nc(C)oc5c4)c[nH]c3n2)c(OC)c1,IC50,[1],0.0244 µM
same,IC50,[2],0.0223 µM
same,IC50,[3],0.0115 µM
same,IC50,[4],< 0.00316 µM
same,IC50,[5],< 0.00316 µM
same,IC50,[6],< 0.00316 µM
same,"viability, T/C",[43],101%
same,"viability, T/C",[44],73.3%
same,"viability, T/C",[7],43.3%
same,"viability, T/C",[8],23.4%
same,"viability, T/C",[9],16.7%
same,"viability, T/C",[10],11.2%
same,"viability, T/C",[45],77.8%
same,"viability, T/C",[46],71%
same,"viability, T/C",[13],40.5%
same,"viability, T/C",[14],19.2%
same,"viability, T/C",[15],16.6%
same,"viability, T/C",[16],10.3%
same,"viability, T/C",[47],64.4%
same,"viability, T/C",[48],54%
same,"viability, T/C",[19],21%
same,"viability, T/C",[20],12.9%
same,"viability, T/C",[21],12.4%
same,"viability, T/C",[22],7.31%
same,"viability, T/C",[49],47.3%
same,"viability, T/C",[50],31.8%
same,"viability, T/C",[25],12.8%
same,"viability, T/C",[26],8.64%
same,"viability, T/C",[27],5.93%
same,"viability, T/C",[28],4%
same,"viability, T/C",[51],43.4%
same,"viability, T/C",[52],23.8%
same,"viability, T/C",[31],8.87%
same,"viability, T/C",[32],10.9%
same,"viability, T/C",[33],6.99%
same,"viability, T/C",[34],3.82%
same,"viability, T/C",[53],40.6%
same,"viability, T/C",[54],24%
same,"viability, T/C",[37],10.3%
same,"viability, T/C",[38],6.46%
same,"viability, T/C",[39],7.11%
same,"viability, T/C",[40],4.09%
COc1c(OCCCN2CCOCC2)ccc2c3n(c(=NC(=O)c4cnc(N)nc4)nc12)CCN3 + CNC(=O)c1ccc(Nc2nc(OC3CCCC3)c3c(-c4ccc5nc(C)oc5c4)c[nH]c3n2)c(OC)c1,IC50,[1],0.0299 µM
same,IC50,[2],< 0.00316 µM
same,IC50,[3],< 0.00316 µM
same,IC50,[4],< 0.00316 µM
same,IC50,[5],< 0.00316 µM
same,IC50,[6],< 0.00316 µM
same,"viability, T/C",[43],86.7%
same,"viability, T/C",[44],93.3%
same,"viability, T/C",[7],47.4%
same,"viability, T/C",[8],20%
same,"viability, T/C",[9],13.3%
same,"viability, T/C",[10],7.3%
same,"viability, T/C",[45],49.4%
same,"viability, T/C",[46],42.1%
same,"viability, T/C",[13],23.9%
same,"viability, T/C",[14],9.52%
same,"viability, T/C",[15],9.27%
same,"viability, T/C",[16],5.48%
same,"viability, T/C",[47],29.3%
same,"viability, T/C",[48],22.8%
same,"viability, T/C",[19],12.3%
same,"viability, T/C",[20],6.69%
same,"viability, T/C",[21],6.54%
same,"viability, T/C",[22],3.73%
same,"viability, T/C",[49],17.2%
same,"viability, T/C",[50],14.2%
same,"viability, T/C",[25],9.1%
same,"viability, T/C",[26],6.05%
same,"viability, T/C",[27],5.94%
same,"viability, T/C",[28],2.82%
same,"viability, T/C",[51],17%
same,"viability, T/C",[52],15%
same,"viability, T/C",[31],8.99%
same,"viability, T/C",[32],4.81%
same,"viability, T/C",[33],4.85%
same,"viability, T/C",[34],1.73%
same,"viability, T/C",[53],21%
same,"viability, T/C",[54],14.5%
same,"viability, T/C",[37],6.54%
same,"viability, T/C",[38],6.2%
same,"viability, T/C",[39],3.21%
same,"viability, T/C",[40],2.06%
CC(C)CC(NC(=O)C(Cc1ccccc1)NC(=O)c1cnccn1)B(O)O (centres undefined),"viability, T/C",compound 0.000949 µM,95.9% and 106%
same,"viability, T/C",compound 0.003 µM,75.5% and 53.2%
same,"viability, T/C",compound 0.00949 µM,0.47% and 2.37%
same,"viability, T/C",compound 0.03 µM,0.24% and 0.94%
same,"viability, T/C",compound 0.0949 µM,0.79% and 3.7%
same,"viability, T/C",compound 0.3 µM,0.71% and 0.52%
same,IC50,curve of compound,0.00444 µM and 0.00322 µM
C#Cc1c(F)ccc2cc(O)cc(-c3ncc4c(N5CC6CCC(C5)N6)nc(OCC56CCCN5CC(F)C6)nc4c3F)c12 (centres undefined),"viability, T/C",compound 0.0316 µM,95.5% and 101%
same,"viability, T/C",compound 0.1 µM,73.5% and 89.7%
same,"viability, T/C",compound 0.316 µM,69.2% and 120%
same,"viability, T/C",compound 1 µM,32% and 60%
same,"viability, T/C",compound 3.16 µM,20.9% and 34.8%
same,"viability, T/C",compound 10 µM,14.7% and 21.7%
same,IC50,curve of compound,0.538 µM and 1.44 µM
CC1(C)CCC(CN2CCN(c3ccc(C(=O)NS(=O)(=O)c4ccc(NCC5CCOCC5)c([N+](=O)[O-])c4)c(Oc4cnc5[nH]ccc5c4)c3)CC2)=C(c2ccc(Cl)cc2)C1 + CNC(=O)c1ccc(Nc2nc(OC3CCCC3)c3c(-c4ccc5nc(C)oc5c4)c[nH]c3n2)c(OC)c1,IC50,[1],6.1 µM
same,IC50,[2],4.37 µM
same,IC50,[3],1.74 µM
same,IC50,[4],< 0.0316 µM
same,IC50,[5],< 0.0316 µM
same,IC50,[6],< 0.0316 µM
same,"viability, T/C",[7],110%
same,"viability, T/C",[8],109%
same,"viability, T/C",[9],102%
same,"viability, T/C",[10],102%
same,"viability, T/C",[11],119%
same,"viability, T/C",[12],6.08%
same,"viability, T/C",[13],81.6%
same,"viability, T/C",[14],82%
same,"viability, T/C",[15],85.8%
same,"viability, T/C",[16],80%
same,"viability, T/C",[17],67.9%
same,"viability, T/C",[18],4.37%
same,"viability, T/C",[19],53.1%
same,"viability, T/C",[20],57.5%
same,"viability, T/C",[21],58.4%
same,"viability, T/C",[22],56.8%
same,"viability, T/C",[23],43.2%
same,"viability, T/C",[24],6.45%
same,"viability, T/C",[25],36.1%
same,"viability, T/C",[26],35.2%
same,"viability, T/C",[27],37.5%
same,"viability, T/C",[28],39.9%
same,"viability, T/C",[29],33.1%
same,"viability, T/C",[30],4.39%
same,"viability, T/C",[31],35.9%
same,"viability, T/C",[32],34.6%
same,"viability, T/C",[33],35.1%
same,"viability, T/C",[34],37.6%
same,"viability, T/C",[35],32.1%
same,"viability, T/C",[36],3.97%
same,"viability, T/C",[37],34.7%
same,"viability, T/C",[38],30.6%
same,"viability, T/C",[39],40.3%
same,"viability, T/C",[40],36%
same,"viability, T/C",[41],35.9%
same,"viability, T/C",[42],6.13%
COc1cccc2c1C(=O)c1c(O)c3c(c(O)c1C2=O)CC(O)(C(=O)CO)CC3OC1CC(N)C(O)C(C)O1 (centres undefined),"viability, T/C",compound 0.0316 µM,127%
same,"viability, T/C",compound 0.1 µM,76.1%
same,"viability, T/C",compound 0.316 µM,20.6%
same,"viability, T/C",compound 1 µM,0.4%
same,"viability, T/C",compound 3.16 µM,1.81%
same,"viability, T/C",compound 10 µM,2.31%
same,IC50,curve of compound,0.171 µM
